Among the data in patent publication US9133204B2, “5-membered heterocyclic amides and related compounds” (H. Lundbeck A/S, priority 2007, dated 2015) are IC50 values, retold here.

SMILES strings stand for the structures.

As usually defined, the IC50 is the concentration that gives 50% inhibition.

The target of this test is T1, P2X7 receptor (Homo sapiens, UniProt Q99572).
T1 construct: host or cells: SH-SY5Y
T1 sequence (Q99572 1-595): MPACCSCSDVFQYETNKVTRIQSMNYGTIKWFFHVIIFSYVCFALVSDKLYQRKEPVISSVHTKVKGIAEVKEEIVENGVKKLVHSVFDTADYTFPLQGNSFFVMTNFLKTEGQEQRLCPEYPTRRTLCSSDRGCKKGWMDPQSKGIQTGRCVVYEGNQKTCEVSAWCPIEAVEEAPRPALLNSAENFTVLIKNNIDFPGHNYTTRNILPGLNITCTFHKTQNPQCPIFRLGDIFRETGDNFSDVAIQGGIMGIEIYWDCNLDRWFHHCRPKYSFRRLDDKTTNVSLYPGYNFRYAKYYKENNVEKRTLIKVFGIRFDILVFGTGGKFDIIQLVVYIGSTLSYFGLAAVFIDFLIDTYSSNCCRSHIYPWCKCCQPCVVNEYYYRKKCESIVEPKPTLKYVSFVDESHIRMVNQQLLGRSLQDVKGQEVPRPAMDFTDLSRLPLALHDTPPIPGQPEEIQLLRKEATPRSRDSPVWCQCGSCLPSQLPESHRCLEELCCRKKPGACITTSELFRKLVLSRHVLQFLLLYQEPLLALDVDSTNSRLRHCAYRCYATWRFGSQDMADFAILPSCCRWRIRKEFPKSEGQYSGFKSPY
Kind of test: High throughput P2X7 calcium mobilization assay (Example 4A). The test is classed as cell-based. The settings on record: SH-SY5Y cells; 50% decrease in fluorescence response of cells exposed to 80 μM BzATP; flag after the MS data in Examples 1-2. The procedure:
A. High Throughput Assay of P2X7 Receptors
SH-SY5Y cells, ATCC Number CRL-2266, (American Type Culture Collection, Manassas, Va.) are cultured under DMEM/High medium supplemented with 10% FBS, and 10 mM HEPES (Invitrogen Corp., Carlsbad, Calif.) in 5% CO2 and at 37° C. One day prior to the experiment, cells are plated at a density of 100,000 cells/well in a 96 well black/clear TC plate (Corning® Costar®, Sigma-Aldrich Co., St. Louis, Mo.). At the beginning of the experiment, the culture medium is removed and cells are incubated with 50 μL of 2.3 μM Fluo-4 AM dye (Invitrogen Corp.) in the assay solution (5 mM KCl, 9.6 mM NaH2PO4.H2O, 25 mM HEPES, 280 mM sucrose, 5 mM glucose, and 0.5 mM CaCl2; pH is adjusted to 7.4 with NaOH) for an hour at 37° C. After one hour dye incubation, wells are rinsed once with 50 μL assay solution, and are then incubated for an hour at room temperature with 100 μL assay solution containing the test compound. The final concentration of test compound generally ranges from 1 to 2500 nM; for positive control cells, no test compound is added. After the one hour incubation, plates are transferred to a FLIPR^TETRA instrument (Molecular Devices, Sunnyvale, Calif.) for calcium mobilization analysis.
For determination of antagonist activity, 50 μL, of P2X7 agonist (2′(3)-O-(4-benzoyl-benzoyl)adenosine 5′-triphosephate (BzATP; Sigma-Aldrich) in the assay solution is transferred using the FLIPR into the plate, such that the final agonist concentration is 80 μM (about EC50). In negative control cells, 50 μL of assay solution without agonist is added at this stage. The peak fluorescence signal over a 2 minute period is then measured.
First, the average maximum relative fluorescent unit (RFU) response from the negative control wells (no agonist) is subtracted from the maximum response detected for each of the other experimental wells. Second, average maximum RFU response is calculated for the positive control wells (agonist wells).
For the molecule `Cc1cnc(-n2cc(C(=O)NCC34CC5CC(CC(C5)C3)C4)c(C)n2)nc1C#N` [1-(4-Cyano-5-methyl-pyrimidin-2-yl)-3-methyl-1H-pyrazole-4-carboxylic acid (adamantan-1-ylmethyl)-amide], the IC50 is ≤ 2000 nM.

Consider `Nc1nc(-n2cc(C(=O)NCC34CC5CC(CC(C5)C3)C4)c(C(F)(F)F)n2)ncc1F` [Compound 1, N-(Adamantan-1-ylmethyl)-1-(4-amino-5-fluoropyrimidin-2-yl)-3-(trifluoromethyl)-1H-pyrazole-4-carboxamide], for which the IC50 was ≤ 2000 nM.

As for `Nc1nc(-n2cc(C(=O)NCC3(c4cccnc4)CCCCC3)c(C(F)(F)F)n2)ncc1F` [Compound 2, 1-(4-Amino-5-fluoropyrimidin-2-yl)-N-((1-(pyridin-3-yl)cyclohexyl)methyl)-3-(trifluoromethyl)-1H-pyrazole-4-carboxamide], the IC50 is ≤ 2000 nM.

Regarding `O=C(NCC12CC3CC(CC(C3)C1)C2)c1cn(-c2ncc(F)cn2)nc1C(F)F` [Compound 3, 3-(Difluoromethyl)-1-(5-fluoro-pyrimidin-2-yl)-1H-pyrazole-4-carboxylic acid (adamantan-1-ylmethyl)-amide], the IC50 was ≤ 2000 nM.

As to `Cc1cnc(-n2cc(C(=O)NCC34CC5CC(CC(C5)C3)C4)c(C)n2)nc1C(=O)N1CCOCC1` [Compound 4, N-(Adamantan-1-ylmethyl)-3-methyl-1-[5-methyl-4-(morpholin-4-ylcarbonyl)pyrimidin-2-yl]-1H-pyrazole-4-carboxamide], the IC50 was ≤ 2000 nM.

Consider `COc1nn(-c2ncccn2)cc1C(=O)NCC12CC3CC(CC(C3)C1)C2` [Compound 5, N-(Adamantan-1-ylmethyl)-3-methoxy-1-pyrimidin-2-yl-1H-pyrazole-4-carboxamide], for which the IC50 is ≤ 2000 nM.

`Nc1nn(-c2ncccn2)cc1C(=O)NCC12CC3CC(CC(C3)C1)C2` [Compound 6, N-(Adamantan-1-ylmethyl)-3-amino-1-pyrimidin-2-yl-1H-pyrazole-4-carboxamide]: the IC50 was ≤ 2000 nM.

With `O=C(NCC12CC3CC(CC(C3)C1)C2)c1cn(-c2ncccn2)nc1Cl` [Compound 7, N-(Adamantan-1-ylmethyl)-3-chloro-1-pyrimidin-2-yl-1H-pyrazole-4-carboxamide], the IC50 was ≤ 2000 nM.

Take `O=C(NCC12CC3CC(CC(C3)C1)C2)c1cnn(-c2ncccn2)c1Cl` [Compound 8, N-(Adamantan-1-ylmethyl)-5-chloro-1-pyridimin-2-yl-1H-pyrazole-4-carboxamide]: the IC50 is ≤ 2000 nM.

Consider `CC(C)CC(CNC(=O)c1cn(-c2ncccn2)nc1Cl)c1ccc(C(F)(F)F)cc1` (stereo not shown) [Compound 9, 3-Chloro-N-{4-methyl-2-[4-(trifluoromethyl)phenyl]pentyl}-1-pyrimidin-2-yl-1H-pyrazole-4-carboxamide], for which the IC50 is ≤ 2000 nM.

Consider `O=C(NCC1(c2ccc(C(F)(F)F)cc2)CCCCC1)c1cn(-c2ncccn2)nc1Cl` [Compound 10, 3-Chloro-1-pyrimidin-2-yl-N-({1-[4-(trifluoromethyl)phenyl]cyclohexyl}methyl)-1H-pyrazole-4-carboxamide], for which the IC50 is ≤ 2000 nM.

As to `O=C(NCC1(c2cccnc2)CCCCC1)c1cn(-c2ncccn2)nc1Cl` [Compound 11, 3-Chloro-N-[(1-pyridin-3-ylcyclohexyl)methyl]-1-pyrimidin-2-yl-1H-pyrazole-4-carboxamide], the IC50 was ≤ 2000 nM.

Take `Cc1ccc(C2(CNC(=O)c3cn(-c4ncccn4)nc3Cl)CCCCC2)cn1` [Compound 12, 3-Chloro-N-{[1-(6-methylpyridin-3-yl)cyclohexyl]methyl}-1-pyrimidin-2-yl-1H-pyrazole-4-carboxamide]: the IC50 is ≤ 2000 nM.

On to `O=C(NCC1(c2cccnc2)CCCCC1)c1cn(-c2nccn3ccnc23)nc1C(F)(F)F` [Compound 14, 1-Imidazo[1,2-a]pyrazin-8-yl-3-trifluoromethyl-1H-pyrazole-4-carboxylic acid (1-pyridin-3-yl-cyclohexylmethyl)-amide], for which the IC50 is ≤ 2000 nM.

For the molecule `O=C(CC12CC3CC(CC(C3)C1)C2)Nc1cn(-c2ncccn2)nc1C(F)(F)F` [Compound 15, 2-Adamantan-1-yl-N-(1-pyrimidin-2-yl-3-trifluoromethyl-1H-pyrazol-4-yl)-acetamide], the IC50 is ≤ 2000 nM.

For the molecule `Cc1nn(C)c(Cc2ccccc2)c1C(=O)NCC12CC3CC(CC(C3)C1)C2` [Compound 16, 5-Benzyl-1,3-dimethyl-1H-pyrazole-4-carboxylic acid (adamantan-1-ylmethyl)-amide], the IC50 is ≤ 2000 nM.

For `O=C(NCC12CC3CC(CC(C3)C1)C2)c1ccnn1Cc1ccccc1` [Compound 17, N-(Adamantan-1-ylmethyl)-1-benzyl-1H-pyrazole-5-carboxamide], the half-maximal inhibitory concentration (IC50) is ≤ 2000 nM.

In the case of `Cn1nc(-c2ccccc2)cc1C(=O)NCC1(c2cccnc2)CCCCC1` [Compound 19, 1-Methyl-3-phenyl-N-[(1-pyridin-3-ylcyclohexyl)methyl]-1H-pyrazole-5-carboxamide], the IC50 is ≤ 2000 nM.

With `Cc1ccc(C2(CNC(=O)c3cc(-c4ccccc4)nn3C)CCCCC2)cn1` [Compound 20, 1-Methyl-3-phenyl-N-{[1-(methylpyridin-3-yl)cyclohexyl]methyl}-1H-pyrazole-5-carboxamide], the IC50 is ≤ 2000 nM.

On to `Cn1nc(-c2ccccc2)cc1C(=O)NCC1(c2ccc(Cl)cc2)CCCCC1` [Compound 21, 1-Methyl-3-phenyl-N-[1-(4-chlorophenyl)cyclohexyl]methyl-1H-pyrazole-5-carboxamide], for which the IC50 is ≤ 2000 nM.

In the case of `CC(C)CC(CNC(=O)c1sc(-c2ncccn2)nc1C(F)(F)F)c1ccc(Cl)cc1` (stereo not shown) [Compound 22, 4-trifluoromethyl-2-pyrimidin-2-yl-thiazole-5-carboxylic acid[2-(4-chloro-phenyl)-4-methyl-pentyl]-amide], the IC50 was ≤ 2000 nM.

In the case of `O=C(NCC(c1ccc(Cl)cc1)N1CCCCC1)c1sc(-c2ncccn2)nc1C(F)(F)F` (stereo not shown) [Compound 23, N-[2-(4-chlorophenyl)-2-piperidin-1-ylethyl]-2-pyrimidin-2-yl-4-(trifluoromethyl)-1,3-thiazole-5-carboxamide], the IC50 was ≤ 2000 nM.

Take `CN1CCN(C2(CNC(=O)c3sc(-c4ncccn4)nc3C(F)(F)F)CCCCCC2)CC1` [Compound 24, N-{[1-(4-methylpiperazin-1-yl)cycloheptyl]methyl}-2-pyrimidin-2-yl-4-(trifluoromethyl)-1,3-thiazole-5-carboxamide]: the IC50 is ≤ 2000 nM.

Regarding `O=C(NCC1(c2cccnc2)CCCCC1)c1sc(N2CCCCS2(=O)=O)nc1C(F)(F)F` [Compound 26, 2-(1,1-Dioxido-1,2-thiazinan-2-yl)-N-[(1-pyridin-3-ylcyclohexyl)methyl]-4-(trifluoromethyl)-1,3-thiazole-5-carboxamide], the IC50 is ≤ 2000 nM.

Consider `CN(C)[C@@H]1CCN(c2nc(C(F)(F)F)c(C(=O)NCC3(c4cccnc4)CCCCC3)s2)C1` [Compound 27, 2-((R)-3-Dimethylamino-pyrrolidin-1-yl)-4-trifluoromethyl-thiazole-5-carboxylic acid (1-pyridin-3-yl-cyclohexylmethyl)-amide], for which the IC50 was ≤ 2000 nM.

Regarding `COc1ccc(-c2nc(C(F)(F)F)c(C(=O)NCC3(c4cccnc4)CCCCC3)s2)cn1` [Compound 28, 2-(6-methoxy-pyridin-3-yl)-4-trifluoromethyl-thiazole-5-carboxylic acid (1-pyridin-3-yl-cyclohexylmethyl)-amide], the IC50 is ≤ 2000 nM.

For the molecule `Cc1nc(-c2cccnc2)sc1C(=O)NCC1(c2ccc(Cl)cc2)CCCCC1` [Compound 29, N-{[1-(4-Chlorophenyl)cyclohexyl]methyl}-4-methyl-2-pyridin-3-yl-1,3-thiazole-5-carboxamide], the concentration for half-maximal inhibition (IC50) is ≤ 2000 nM.

As for `Cc1nc(-c2cccnc2)sc1C(=O)NCC(CC(C)C)c1ccc(C(F)(F)F)cc1` (stereo not shown) [Compound 30], the IC50 is ≤ 2000 nM.
